This is an account of results in patent US20250339470A1, “METHODS AND COMPOSITIONS FOR MATURING CARDIOMYOCYTES” (President and Fellows of Harvard College, priority 2024, published 2025).

“Also recorded” adds a separate entry of the source.

For one data set, the system named is hiPSC-CMs. The data set is described as follows: qPCR mRNA expression of hiPSC-CMs cultured 7 days on SAP-coated plates. Format: cell-based, human. To be noted: 7 days on 0.25% SAP coating; control Geltrex. How it is done: At day 14 of cardiomyocyte differentiation, completion of the protocol was confirmed. Fully beating cardiomyocyte embryoid bodies were dissociated using the cardiomyocyte dissociation kit (STEMdiff Cardiomyocyte Dissociation Kit, […] Technologies, Canada) and reseeded (1.2 million cells/well) onto 6-well plates, which were prepared as follows. Each 6-well plate had 3 wells coated with Geltrex (control) and 3 wells coated with one of four self-assembling peptides (SAPs) at 0.25% concentration such that the differentiated cardiomyocytes would be cultured with the SAP. Specifically, the following SAPs were used in this study: RADA16, IEIK13, KLD12, and QLEL12. The cells were maintained for further in vitro analysis. Total RNA was extracted 7 days after initial exposure to each SAP to analyze messenger RNA (mRNA) expression of cardiomyocyte genes characteristics of an adult-like state. The inventors used Tryzol (TRIzol Reagent, Invitrogen, USA) to extract total RNA and a purification kit (E.Z.N.A. Total RNA kit I, Omega Bio-tec, Inc., Georgia, USA) according to the manufacturer's instructions. After quantification, RNA was reverse transcribed to cDNA using the High-Capacity cDNA Reverse Transcription Kit (Applied Biosystems) according to the manufacturer's instructions. Quantitative Polymerase Chain Reaction (qPCR) was performed in triplicate for each sample using the iTaq Universal SYBR Green Supermix (Bio-Rad) and the primer pairs (table S3) with a Bio-Rad CFX384 Real-Time thermal cycler. Double delta analyses were performed to compute the relative mRNA expression of each target gene using glyceraldehyde-3-phosphate dehydrogenase (GAPDH) as a housekeeping control gene.
For orientation: Real-time PCR tracks product formation cycle by cycle.

In data set [1] the test system is hiPSC-CMs transplanted into rat hearts. The data set is described as follows: Electrophysiological recording with flexible mesh nanoelectronics (Langendorff). It counts as in vivo. The settings on record: 3 months after transplantation into the athymic rat heart. How it is done:
The inventors used RNU nude rats (8-10 weeks old, male, 250-350 g). Rats received cyclosporine injections (15 mg/kg) as an immunosuppressant a day before the injection and every day after surgery. […] After at least five days of observation in healthy conditions, the rats were applied to the electrophysiological study. […] As a pre-surgical analgesic, buprenorphine (0.1 mg/kg) was administered to the rats before anesthesia. […] The distal ascending aorta was ligated with a 4-0 silk suture, followed by infusion of heparin to coronary arteries, with the right atrium cut open to infuse efficiently with decreased right atrium pressure. […] The temperature of the circulated solution, the chamber of the Langendorff, and the heart rate were monitored with a data acquisition system (Bridge Amp (PowerLab 8/30, ADInstruments, USA), Bio Amp (Product code: FE231, ADInstruments, USA), Spring Clip Electrodes (Product code: MLA1214, AD ADInstruments, USA), and LabChart software v8.1.20) until the heart beating became stable. […] The inventors analyzed the electrophysiological data with a customized Python script. […] The inventors then detected electrical spikes using “find_peaks” from Scipy. The inventors manually curated the detected spikes into host sinus rhythm, automaticity/arrhythmia rhythm, and noises. […] The spikes were recorded at both the injection and reference sites. • 2. […]

In data set [2] the test system is hiPSC-CMs injected into the rat left ventricle wall. The data set is described as follows: Sarcomere organization (SOTA), orientation and length of injected hiPSC-CMs. Format: in vivo. To be noted: 7 days post-injection. How it is done:
The sections were stained with anti-cardiac troponin T antibody (Alexa Fluor 647 Mouse Anti-Cardiac Troponin T (cat #565744): cTnT, BD Pharmagen. 1:200), anti-human troponin I antibody (Recombinant Anti-Cardiac Troponin I antibody [EP1106Y] (ab52862): hTnI, Abcam 1:250), and DAPI as performed in the immunofluorescent staining. […] In this study, the inventors applied SarcOmere Texture Analysis (SOTA) to quantify sarcomere organization (17). SOTA was conducted by independent investigators who had no prior knowledge of the sample information. This methodological approach minimized potential biases and enhanced the reliability of the results.
hiPSC-CMs were stained with hTnI to identify myofilaments. […]
Sarcomere length was measured as the distance between hTnI-stained Z-lines from cardiomyocytes with visible sarcomere structures. An average of 10 sarcomeres from each sample was calculated on an interpolated YZ projection to account for spatial distribution across different regions of the image (45). […]
The inventors performed the automated analysis of sarcomere organization using SOTA, which was previously validated in endogenous, direct reprogrammed, and induced pluripotent-derived cardiomyocytes (17). […] The inventors also calculated the primary sarcomere orientation using the SOTA angle of peak prominence. […]

Regarding IEIK13, in the data set with hiPSC-CMs, the “expression of KCNJ2” value is on record as “significantly higher”.

Take RADA16: in data set [1], the ventricular bigeminy entry is on record as “not observed”. For the same substance, in data set [2], the sarcomere length result is “not associated with a difference”. Also, in the data set with hiPSC-CMs, the “expression of GJA1” value was “significantly higher in the RADA16 group compared to all other SAP groups and the control group; also recorded: highest expression”; the “expression of KCNJ2” value was “significantly higher; also recorded: highest expression”; the “expression of NANOG” value was “significantly lower in the RADA16 and control groups than in the IEIK13 group; also recorded: no significant difference between the control and RADA16 group; also recorded: significantly declined”; the “ratio of MYH7 mRNA expression to MYH6 expression” value was “significantly higher in the RADA16 group than in the IEIK13 and QLEL12 groups; also recorded: not significantly different between the RADA16 and control groups nor the RADA16 and KLD12 groups; also recorded: most pronounced increase”. In the data set on hiPSC-CMs, the “ratio of TNNI3 to TNNI1 expression” value is listed as “higher TNNI3/TNNI1 expression ratio”.

In the case of KLD12, the “expression of KCNJ2” value with hiPSC-CMs was “significantly higher”.
